Test results taken from patent US8772005B2, “Laccases, compositions and methods of use” (Danisco US Inc., priority 2006, dated 2014).

Tested on: Thielavia sp. laccase
Test: Bleaching of solubilized indigo by laccase/mediator combinations, 96-well microtitre plate, absorbance at 600 nm
Assay type: biochemical
Method: An assay for the bleaching of the solubilized indigo substrate by laccase/mediator combinations was performed in a 96-well microtitre plate as follows
A saturated solution of indigo in N-methylpyrrolidone (NMP) was prepared by stirring indigo (30 mg) in NMP (10 ml) at room temperature for 5 hours. The NMP solution was diluted 10-fold into an aqueous buffer solution resulting in a blue solution. For example, dilution into 50 mM sodium acetate buffer at pH 5, or 50 mM sodium phosphate buffer at pH 7. Solutions were shaken well immediately before use.
The assay for the bleaching of the solubilized indigo substrate was performed in a 96-well microtitre plate whereby each well received the soluble indigo solution in 50 mM sodium acetate buffer at pH 5 (180 uL), laccase (10 ppm enzyme) and mediator solution (from a 20 mM stock solution in methanol). The total volume of each well was adjusted to 200 uL with deionzed water. A control containing laccase only was run in duplicate. The plate was sealed and incubated at 50° C. for 2 hours at 800 rpm on a heated agitator (Thermomixer, Eppendorf). Following this period, the plates were unsealed and a solution of ascorbic acid (20 uL of a 10% aqueous solution) added to each well in order to reduce the oxidized forms of the mediators. The extent of indigo bleaching was then assessed by determining the absorbance for each well at 600 nm using a microtitre plate reader. The lower the absorbance reading, the greater the extent of indigo bleaching.
Laccases derived from Myceliophtora (Denilite® II, Novozymes, Bagsvaerd, Denmark), Thielavia (Ecostone LCC10, AB enzymes, Darmstadt, Germany) and Cerrena sp. were assessed for their ability to bleach solubilized indigo in conjunction with low molecular weight mediators at two pH values.

| Compound | effectiveness of mediator for indigo bleaching (in words) (mediator concentration 50 uM) | effectiveness of mediator for indigo bleaching (in words) (mediator concentration 500 uM) |
| --- | --- | --- |
| CCn1c(=NN=c2sc3cc(S(=O)(=O)O)ccc3n2CC)sc2cc(S(=O)(=O)O)ccc21 [ABTS] | most effective mediator | most effective mediator |
| COc1cc(C(=O)O)cc(OC)c1O [Syringic acid, syringic acid] | bleached soluble indigo no more effectively than the control condition |  |
